According to US9399638B2, “Substituted pyridine compounds as CRAC modulators” (LUPIN LIMITED, priority 2012, dated 2016):

System: IL-2 secretion by Jurkat T cells
Test: Inhibition of IL-2 secretion
Type: cell-based
Details: Homo sapiens; Jurkat T cells stimulated with PHA, 20 to 24 hours, IL-2 by ELISA
Description: The CRAC channel modulatory activity of the compounds were thus evaluated by measuring the secretion of IL-2 by antigen stimulated T-cells in vitro. Alternatively, such activity can also be evaluated by assay methods known to one skilled in the art.
Inhibition of IL-2 secretion: Jurkat T cells were seeded at a density of 0.5 to 1 million cells per well in RPMI medium. Test compounds from this invention were added to the cells at different concentrations. This was followed by the addition of PHA, a T cell mitogen after 10 minutes. The cells were then incubated for 20 to 24 hours in a CO2 incubator at 37° C. After incubation with the compounds, cells were centrifuged, the supernatant was collected and processed for ELISA to quantitate the amount of IL-2 secreted. A commercial ELISA kit (R&D Systems, Inc. Minneapolis, Minn., USA) was used to estimate the IL-2 concentrations. Amount of IL-2 secreted by cells stimulated with PHA was considered as a 100% maximal signal and the decrease in amount of IL-2 secreted by cells treated with the test compounds was expressed as percent inhibition of the maximal signal. The dose response data was analyzed using 4-parametric sigmoidal dose response (variable slope) curve—fit.

SMILES	IC50
CCOc1cc(-c2ccc(NC(=O)c3c(F)cccc3F)cc2)nc(-c2nn(C)c(=O)o2)c1 [Example 25, N-(4-(4-Ethoxy-6-(4-methyl-5-oxo-4,5-dihydro-1,3,4-oxadiazol-2-yl)pyridin-2-yl)phenyl)-2,6-difluorobenzamide]	> 1000 nM
Cn1nc(-c2cc(-c3ccc(NC(=O)c4c(F)cccc4F)cc3)ccn2)oc1=O [Example 26, 2,6-Difluoro-N-(4-(2-(4-methyl-5-oxo-4,5-dihydro-1,3,4-oxadiazol-2-yl)pyridin-4-yl)phenyl)benzamide]	> 1000 nM
CCc1ncc(-c2nn(C)c(=O)o2)cc1-c1ccc(NC(=O)c2c(F)cccc2F)cn1 [Example 31, N-(2′-ethyl-5′-(4-methyl-5-oxo-4,5-dihydro-1,3,4-oxadiazol-2-yl)-[2,3′-bipyridin]-5-yl)-2,6-difluorobenzamide]	100 to 1000 nM
Cn1nc(-c2cnc(C3CC3)c(-c3cnc(NC(=O)c4c(F)cccc4Cl)cn3)c2)oc1=O [Example 34, 2-Chloro-N-(5-(2-cyclopropyl-5-(4-methyl-5-oxo-4,5-dihydro-1,3,4-oxadiazol-2-yl)pyridin-3-yl)pyrazin-2-yl)-6-fluorobenzamide]	100 to 1000 nM
Cn1nc(-c2cnc(C(F)(F)F)c(-c3ccc(NC(=O)c4c(F)cccc4F)nc3)c2)oc1=O [Example 38, 2,6-Difluoro-N-(5′-(4-methyl-5-oxo-4,5-dihydro-1,3,4-oxadiazol-2-yl)-2′-(trifluoromethyl)-[3,3′-bipyridin]-6-yl)benzamide]	100 to 1000 nM
Cn1nc(-c2cnc(C(F)(F)F)c(-c3ccc(NC(=O)c4c(F)cccc4F)cn3)c2)oc1=O [Example 39, 2,6-Difluoro-N-(5′-(4-methyl-5-oxo-4,5-dihydro-1,3,4-oxadiazol-2-yl)-2′-(trifluoromethyl)-[2,3′-bipyridin]-5-yl)benzamide]	100 to 1000 nM
CCc1ncc(-c2nn(C)c(=O)o2)cc1-c1ccc(NCc2c(F)cccc2F)cn1 [Example 40, 5-(5-((2,6-Difluorobenzyl)amino)-2′-ethyl-[2,3′-bipyridin]-5′-yl)-3-methyl-1,3,4-oxadiazol-2(3H)-one]	100 to 1000 nM
CCc1ncc(-c2nn(C)c(=O)o2)cc1-c1ccc(NCc2c(F)cccc2F)nc1 [Example 41A, 5-(6′-((2,6-Difluorobenzyl)amino)-2-ethyl-[3,3′-bipyridin]-5-yl)-3-methyl-1,3,4-oxadiazol-2(3H)-one]	> 1000 nM
CCc1ncc(-c2nn(C)c(=O)o2)cc1-c1cc(C)c(NC(=O)c2c(F)cccc2F)cn1 [Example 41B, N-(2′-Ethyl-4-methyl-5′-(4-methyl-5-oxo-4,5-dihydro-1,3,4-oxadiazol-2-yl)-[2,3′-bipyridin]-5-yl)-2,6-difluorobenzamide]	100 to 1000 nM
CCc1ncc(-c2nn(C)c(=O)o2)cc1-c1ccc(C(=O)Nc2c(F)cccc2F)o1 [Example 44, N-(2,6-Difluorophenyl)-5-(2-ethyl-5-(4-methyl-5-oxo-4,5-dihydro-1,3,4-oxadiazol-2-yl)pyridin-3-yl)furan-2-carboxamide]	> 1000 nM
Cn1nc(-c2cnc(C3CC3)c(-c3ccc(C(=O)Nc4c(F)cccc4F)o3)c2)oc1=O [Example 45, 5-(2-Cyclopropyl-5-(4-methyl-5-oxo-4,5-dihydro-1,3,4-oxadiazol-2-yl)pyridin-3-yl)-N-(2,6-difluorophenyl)furan-2-carboxamide]	> 1000 nM
CCc1ncc(-c2nn(C)c(=O)o2)cc1-c1ccc(NC(=O)c2c(F)cncc2F)cc1 [Example 46, N-(4-(2-Ethyl-5-(4-methyl-5-oxo-4,5-dihydro-1,3,4-oxadiazol-2-yl)pyridin-3-yl)phenyl)-3,5-difluoroisonicotinamide]	100 to 1000 nM

The remaining lines, values ahead:

IC50	SMILES
100 to 1000 nM	Cc1cc(-c2nn(C)c(=O)o2)ncc1-c1ccc(NC(=O)c2c(F)cccc2F)cc1 [Example 27, 2,6-Difluoro-N-(4-(4-methyl-6-(4-methyl-5-oxo-4,5-dihydro-1,3,4-oxadiazol-2-yl)pyridin-3-yl)phenyl)benzamide]
100 to 1000 nM	Cc1nnsc1C(=O)Nc1ccc(-c2cc(-c3nn(C)c(=O)o3)cnc2C2CC2)cc1 [Example 28, N-(4-(2-Cyclopropyl-5-(4-methyl-5-oxo-4,5-dihydro-1,3,4-oxadiazol-2-yl)pyridin-3-yl)phenyl)-4-methyl-1,2,3-thiadiazole-5-carboxamide]
< 100 nM	CCc1ncc(-c2nn(C)c(=O)o2)cc1-c1ccc(NC(=O)c2c(F)cccc2F)cc1C [Example 29, N-(4-(2-Ethyl-5-(4-methyl-5-oxo-4,5-dihydro-1,3,4-oxadiazol-2-yl)pyridin-3-yl)-3-methylphenyl)-2,6-difluorobenzamide]
< 100 nM	CCc1ncc(-c2nn(C)c(=O)o2)cc1-c1ccc(NC(=O)c2c(F)cccc2F)nc1 [Example 30, N-(2′-ethyl-5′-(4-methyl-5-oxo-4,5-dihydro-1,3,4-oxadiazol-2-yl)-[3,3′-bipyridin]-6-yl)-2,6-difluorobenzamide]
< 100 nM	Cc1cc(NC(=O)c2c(F)cccc2F)ccc1-c1cc(-c2nn(C)c(=O)o2)cnc1C1CC1 [Example 32, N-(4-(2-Cyclopropyl-5-(4-methyl-5-oxo-4,5-dihydro-1,3,4-oxadiazol-2-yl)pyridin-3-yl)-3-methylphenyl)-2,6-difluorobenzamide]
< 100 nM	Cn1nc(-c2cnc(C3CC3)c(-c3cnc(NC(=O)c4c(F)cccc4F)cn3)c2)oc1=O [Example 33, N-(5-(2-Cyclopropyl-5-(4-methyl-5-oxo-4,5-dihydro-1,3,4-oxadiazol-2-yl)pyridin-3-yl)pyrazin-2-yl)-2,6-difluorobenzamide]
< 100 nM	Cn1nc(-c2cnc(C3CC3)c(-c3ccc(NC(=O)c4c(F)cccc4F)cn3)c2)oc1=O [Example 35, N-(2′-Cyclopropyl-5′-(4-methyl-5-oxo-4,5-dihydro-1,3,4-oxadiazol-2-yl)-[2,3′-bipyridin]-5-yl)-2,6-difluorobenzamide]
< 100 nM	Cn1nc(-c2cnc(C3CC3)c(-c3ccc(NC(=O)c4c(F)cccc4F)nc3)c2)oc1=O [Example 36, N-(2′-Cyclopropyl-5′-(4-methyl-5-oxo-4,5-dihydro-1,3,4-oxadiazol-2-yl)-[3,3′-bipyridin]-6-yl)-2,6-difluorobenzamide]
< 100 nM	Cn1nc(-c2cnc(C(F)(F)F)c(-c3cnc(NC(=O)c4c(F)cccc4F)cn3)c2)oc1=O [Example 37, 2,6-Difluoro-N-(5-(5-(4-methyl-5-oxo-4,5-dihydro-1,3,4-oxadiazol-2-yl)-2-(trifluoromethyl)pyridine-3-yl)pyrazin-2-yl)benzamide]
< 100 nM	CCc1ncc(-c2nn(C)c(=O)o2)cc1-c1cnc(NC(=O)c2c(F)cccc2F)cc1C [Example 41]
< 100 nM	Cn1nc(-c2cnc(C3CC3)c(-c3ccc(C(=O)Nc4c(F)cccc4Cl)s3)c2)oc1=O [Example 42, N-(2-Chloro-6-fluorophenyl)-5-(2-cyclopropyl-5-(4-methyl-5-oxo-4,5-dihydro-1,3,4-oxadiazol-2-yl)pyridin-3-yl)thiophene-2-carboxamide]
< 100 nM	Cc1cnccc1NC(=O)c1ccc(-c2cc(-c3nn(C)c(=O)o3)cnc2C2CC2)s1 [Example 43, 5-(2-Cyclopropyl-5-(4-methyl-5-oxo-4,5-dihydro-1,3,4-oxadiazol-2-yl)pyridin-3-yl)-N-(3-methylpyridin-4-yl)thiophene-2-carboxamide]
